Assays:
Type in all cases: cell-based, mouse
[1] = molecular target: T1, BaF3-ETV6-NTRK2 (Homo sapiens, UniProt Q16620); experiment: Cell proliferation inhibition (CCK-8), BaF3-ETV6-NTRK2 stable strain; settings: BaF3-ETV6-NTRK2, 72 hours
T1 construct: fused on or other part: P41212 (Transcription factor ETV6)
Protocol: (§1) The brief steps of stable strain construction are as follows: construct a pCDNA3.1(+) plasmid vector carrying genes such as CD74-NTRK1, ETV6-NTRK2 and ETV6-NTRK3; the plasmid was electroporated into Ba/F3 cells using the Amaxa® Cell Line Nucleofector® Kit V; 48 hours after electroporated, G418 with a final concentration of 1000 μg/ml was added for screening for two weeks, and then IL3 was removed, and continued screening to obtain polyclonal stable strains; then single clones were selected by a limiting dilution method. The stable strains were then identified using positive drugs, WB and gene sequencing; and the monoclonal clones that were identified as completely correct may be used for the study of cell proliferation inhibitory activity of inhibitors.
(§2) Cell proliferation inhibition activity study: the cells in the logarithmic growth phase were seeded into 96-well plates at 8000-12000 cells/well, and inhibitors at different concentrations (0-10 μM) were added the next day, and incubation was continued for 72 hours; then 10 μL of CCK-8 reagent was added to each well, and the incubation was continued for 1-3 hours; and then use a super microplate reader to measure their absorbance values at 450 nm and 650 nm. The half-inhibition concentration (IC50) was calculated using GraphPad Prism 8.0.0.

[2] = molecular target: T2, BaF3-CD74-NTRK1 (Homo sapiens, UniProt P04629); experiment: Cell proliferation inhibition (CCK-8), BaF3-CD74-NTRK1 stable strain; settings: BaF3-CD74-NTRK1, 72 hours
T2 construct: fused on or other part: P04233 (HLA class II histocompatibility antigen gamma chain)
Protocol: as §1, §2

[3] = molecular target: T3, BaF3-ETV6-NTRK3 (Homo sapiens, UniProt Q16288); experiment: Cell proliferation inhibition (CCK-8), BaF3-ETV6-NTRK3 stable strain; settings: BaF3-ETV6-NTRK3, 72 hours
T3 construct: fused on or other part: P41212 (Transcription factor ETV6)
Protocol: as §1, §2

T3 sequence (Q16288 whole entry, the tested form may be a part): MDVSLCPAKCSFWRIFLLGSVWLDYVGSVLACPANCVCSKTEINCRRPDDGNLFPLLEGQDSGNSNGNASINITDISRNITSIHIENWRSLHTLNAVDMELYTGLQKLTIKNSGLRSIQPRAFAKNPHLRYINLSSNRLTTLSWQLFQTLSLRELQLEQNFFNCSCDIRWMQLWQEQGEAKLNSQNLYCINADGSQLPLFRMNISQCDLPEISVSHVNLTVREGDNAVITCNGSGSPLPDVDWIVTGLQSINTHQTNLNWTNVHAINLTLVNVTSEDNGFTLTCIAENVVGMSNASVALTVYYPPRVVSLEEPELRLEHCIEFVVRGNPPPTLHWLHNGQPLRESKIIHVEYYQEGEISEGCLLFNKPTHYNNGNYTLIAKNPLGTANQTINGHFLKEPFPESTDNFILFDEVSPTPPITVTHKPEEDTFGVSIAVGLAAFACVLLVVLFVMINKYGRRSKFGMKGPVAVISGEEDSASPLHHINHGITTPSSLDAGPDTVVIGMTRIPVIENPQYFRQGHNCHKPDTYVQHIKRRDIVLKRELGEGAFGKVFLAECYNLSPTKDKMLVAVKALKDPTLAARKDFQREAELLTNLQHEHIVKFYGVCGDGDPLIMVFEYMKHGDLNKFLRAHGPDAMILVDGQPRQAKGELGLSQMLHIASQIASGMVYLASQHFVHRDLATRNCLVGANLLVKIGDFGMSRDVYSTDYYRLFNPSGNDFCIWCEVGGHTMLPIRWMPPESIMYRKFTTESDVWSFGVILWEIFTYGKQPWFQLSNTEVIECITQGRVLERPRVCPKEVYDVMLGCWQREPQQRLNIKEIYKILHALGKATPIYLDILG
T2 sequence (P04629 510-796 limits assumed): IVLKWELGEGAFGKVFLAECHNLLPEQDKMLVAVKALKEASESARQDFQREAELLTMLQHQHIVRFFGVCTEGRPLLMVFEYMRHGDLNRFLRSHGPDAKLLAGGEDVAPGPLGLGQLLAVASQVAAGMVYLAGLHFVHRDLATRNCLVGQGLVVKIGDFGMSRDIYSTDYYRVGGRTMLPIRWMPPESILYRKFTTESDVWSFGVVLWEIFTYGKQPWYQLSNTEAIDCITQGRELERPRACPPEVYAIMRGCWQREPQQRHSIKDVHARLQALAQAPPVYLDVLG
T1 sequence (Q16620 538-822 limits assumed): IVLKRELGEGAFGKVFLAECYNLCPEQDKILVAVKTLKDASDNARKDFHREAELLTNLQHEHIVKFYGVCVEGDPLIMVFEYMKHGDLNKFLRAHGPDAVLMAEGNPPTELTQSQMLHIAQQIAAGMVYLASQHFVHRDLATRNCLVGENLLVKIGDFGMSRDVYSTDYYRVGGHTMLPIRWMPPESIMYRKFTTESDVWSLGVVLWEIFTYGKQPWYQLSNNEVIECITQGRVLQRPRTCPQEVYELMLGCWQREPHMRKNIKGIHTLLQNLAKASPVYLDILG

Structure (SMILES) | IC50 [1] [nM] | IC50 [2] [nM] | IC50 [3] [nM]
CC(C)NC(=O)/C=C/c1n[nH]c2ccc(NCc3cc(F)cc(F)c3)cc12 [DYX-231, (E)-3-(5-((3,5-difluorobenzyl)amino)-1H-indazol-3-yl)-N-isopropylacrylamide] | 780 | 619 | 547
COCCn1cc(/C=C/c2n[nH]c3ccc(NS(=O)(=O)c4cc(F)cc(F)c4)cc23)cn1 [CHW-13] | 52.3 | 40.2 | 41.3
NC(=O)/C=C/c1n[nH]c2ccc(NCc3cc(F)cc(F)c3)cc12 [DYX-223, (E)-3-(5-((3,5-difluorobenzyl)amino)-1H-indazol-3-yl)acrylamide] | 24.3 | 37.7 | 35.6
C[C@@H](Nc1ccc2[nH]nc(/C=C/c3ccccn3)c2c1)c1cccc(F)c1 [DYX-320, (R,E)-N-(1-(3-fluorophenyl)ethyl)-3-(2-(pyridin-2-yl)vinyl)-1H-indazol-5-amine] | 32.4 | 37.6 | 10.4
O=C(/C=C/c1n[nH]c2ccc(NCc3cc(F)cc(F)c3)cc12)N1CCOCC1 [DYX-222, (E)-3-(5-((3,5-difluorobenzyl)amino)-1H-indazol-3-yl)-1-morpholinoprop-2-en-1-one] | 54.7 | 37.3 | 41.5
CNC(=O)/C=C/c1n[nH]c2ccc(NCc3cc(F)cc(F)c3)cc12 [DYX-235, (E)-3-(5-((3,5-difluorobenzyl)amino)-1H-indazol-3-yl)-N-methylacrylamide] | 32.6 | 20 | 34.2
Fc1ccccc1CNc1ccc2[nH]nc(/C=C/c3ccccn3)c2c1 [DYX-413, (E)-N-(2-fluorobenzyl)-3-(2-(pyridin-2-yl)vinyl)-1H-indazol-5-amine] | 376 | 40.8 | 161
O=C(/C=C/c1n[nH]c2ccc(NCc3cc(F)cc(F)c3)cc12)N1CC[C@H](O)C1 [DYX-228, (S,E)-3-(5-((3,5-difluorobenzyl)amino)-1H-indazol-3-yl)-1-(3-hydroxylpyrrolidin-1-yl)prop-2-en-1-one] | 20.5 | 11.9 | 11.6
Fc1ccc(CNc2ccc3[nH]nc(/C=C/c4ccccn4)c3c2)cc1 [DYX-417, (E)-N-(4-fluorobenzyl)-3-(2-(pyridin-2-yl)vinyl)-1H-indazol-5-amine] | 2530 | 158 | 579
C[C@@H](Nc1ccc2[nH]nc(/C=C/c3cnccn3)c2c1)c1cc(F)cc(F)c1 [DYX-411, (R,E)-N-(1-(3,5-difluorophenyl)ethyl)-3-(2-(pyrazin-2-yl)vinyl)-1H-indazol-5-amine] | 38 | 35.7 | 11
FC(F)(F)c1cccc(Cc2ccc3[nH]nc(C#Cc4ccccn4)c3c2)c1 [DYX-138Q] | > 10000 | > 10000 | > 10000
N#Cc1cccc(Cc2ccc3[nH]nc(C#Cc4ccccn4)c3c2)c1 [DYX-136Q, 3-((3-(pyridin-2-ylethynyl)-1H-indazol-5-yl)methyl)benzonitrile] | 3100 | 4600 | 2090
CN(C)C(=O)Cn1cc(/C=C/c2n[nH]c3ccc(NS(=O)(=O)c4cc(F)cc(F)c4)cc23)cn1 [CHW-10, (E)-2-(4-(2-(5-((3,5-difluorophenyl)sulfonamido)-1H-indazol-3-yl)vinyl)-1H-pyrazol-1-yl)-N,N-dimethylacetamide] | 439 | 274 | 390
O=S(=O)(Nc1ccc2[nH]nc(/C=C/c3cnn(CC(F)F)c3)c2c1)c1cc(F)cc(F)c1 [CHW-6] | 60.1 | 23 | 53.5
CC(C)OCCn1cc(/C=C/c2n[nH]c3ccc(NS(=O)(=O)c4cc(F)cc(F)c4)cc23)cn1 [CHW-12] | 55.8 | 33.8 | 48.1
CC(C)n1cc(/C=C/c2n[nH]c3ccc(NS(=O)(=O)c4cc(F)cc(F)c4)cc23)cn1 [CHW-7, (E)-3,5-difluoro-N-(3-(2-(1-isopropyl-1H-pyrazol-4-yl)vinyl)-1H-indazol-5-yl)benzenesulfonamide] | 57.8 | 33.4 | 40.9
O=S(=O)(Nc1ccc2[nH]nc(/C=C/c3cnn(C4CC4)c3)c2c1)c1cc(F)cc(F)c1 [CHW-4] | 8.2 | 3.1 | 7
O=S(=O)(Nc1ccc2[nH]nc(/C=C/c3ccccn3)c2c1)c1cncc(F)c1 [CHW-9, (E)-5-fluoro-N-(3-(2-(pyridin-2-yl)vinyl)-1H-indazol-5-yl)pyridine-3-sulfonamide] | 134 | 60.8 | 121
C[C@@H](Nc1ccc2[nH]nc(/C=C/c3ccccn3)c2n1)c1cc(F)cc(F)c1 [DYX-332, (R,E)-N-(1-(3,5-difluorophenyl)ethyl)-3-(2-(pyridin-2-yl)vinyl)-1H-pyrazolo[4,3-b]pyridin-5-amine] | 146 | 9.9 | 46.5
Fc1cc(Cl)cc(CNc2ccc3[nH]nc(/C=C/c4ccccn4)c3c2)c1 [DYX-400, (E)-N-(3-fluoro-5-chlorobenzyl)-3-(2-(pyridin-2-yl)vinyl)-1H-indazol-5-amine] | 154 | 59 | 41.1

Next, values leading:

IC50 [1] [nM] | IC50 [2] [nM] | IC50 [3] [nM] | Structure (SMILES)
19.1 | 10.6 | 14.1 | CCn1cc(/C=C/c2n[nH]c3ccc(NS(=O)(=O)c4cc(F)cc(F)c4)cc23)cn1 [Example D5218, (E)-3,5-difluoro-N-(3-(2-(1-ethyl-1H-pyrazol-4-yl)vinyl)-1H-indazol-5-yl)benzenesulfonamide]
159 | 12.9 | 25.6 | Fc1cc(F)cc(Cc2ccc3[nH]nc(/C=C/c4ccccc4C(F)(F)F)c3c2)c1 [Example D01F11]
220 | 43.8 | 82.9 | Cc1ccccc1/C=C/c1n[nH]c2ccc(S(=O)(=O)c3cc(F)cc(F)c3)cc12 [Example E01F08, (E)-5-((3,5-difluorophenyl)sulfonyl)-3-(2-methylstyryl)-1H-indazole]
362 | 204 | 151 | Fc1cc(Cl)cc(Cc2ccc3[nH]nc(/C=C/c4ccccn4)c3c2)c1 [Example D02F01, (E)-5-(3-chloro-5-fluorobenzyl)-3-(2-(pyridin-2-yl)vinyl)-1H-indazole]
196 | 144 | 128 | O=S(=O)(Nc1ccc2[nH]nc(/C=C/c3cnn(CCO)c3)c2c1)c1cc(F)cc(F)c1 [Example D5221, (E)-3,5-difluoro-N-(3-{2-[1-(2-hydroxyl-ethyl)-1H-pyrazol-4-yl]-vinyl}-1H-indazol-5-yl)-benzenesulfonamide]
41 | 7.6 | 16.2 | COc1ccc(F)cc1CNc1ccc2[nH]nc(/C=C/c3ccccn3)c2c1 [DYX-418, (E)-N-(5-fluoro-2-methoxybenzyl)-3-(2-(pyridin-2-yl)vinyl)-1H-indazol-5-amine]
133 | 18.9 | 40.7 | O=S(=O)(c1cc(F)cc(F)c1)c1ccc2[nH]nc(/C=C/c3ccncc3)c2c1 [Example E01F02, (E)-5-((3,5-difluorophenyl)sulfonyl)-3-(2-(pyridin-4-yl)vinyl)-1H-indazole]
11.9 | 2.4 | 4 | Fc1cncc(CNc2ccc3[nH]nc(/C=C/c4ccccn4)c3c2)c1 [DYX-419, (E)-N-((5-fluoropyridin-3-yl)methyl)-3-(2-(pyridin-2-yl)vinyl)-1H-indazol-5-amine]
3020 | 2310 | 2040 | Cc1cc(C)cc(Cc2ccc3[nH]nc(/C=C/c4ccccn4)c3c2)c1 [Example D07F01, (E)-5-(3,5-dimethylbenzyl)-3-(2-(pyridin-2-yl)vinyl)-1H-indazole]
56.1 | 40.6 | 18.1 | COc1ccc(F)cc1Cc1ccc2[nH]nc(/C=C/c3ccccn3)c2c1 [Example D09F01, (E)-5-(5-fluoro-2-methoxybenzyl)-3-(2-(pyridin-2-yl)vinyl)-1H-indazole]
400 | 112 | 158 | Cc1ccccc1/C=C/c1n[nH]c2ccc(Cc3cc(F)cc(F)c3)cc12 [Example D01F08, (E)-5-(3,5-difluorobenzyl)-3-(2-methylstyryl)-1H-indazole]
462 | 203 | 367 | COc1cc(F)cc(Cc2ccc3[nH]nc(/C=C/c4ccccn4)c3c2)c1 [Example D05F01, (E)-5-(3-fluoro-5-methoxybenzyl)-3-(2-(pyridin-2-yl)vinyl)-1H-indazole]
441 | 35.8 | 92.9 | O=S(=O)(c1cc(F)cc(F)c1)c1ccc2[nH]nc(/C=C/c3ccccc3)c2c1 [Example E01F07, (E)-5-((3,5-difluorophenyl)sulfonyl)-3-styryl-1H-indazole]

From patent publication US20220281821A1, “INDAZOLE COMPOUNDS AND THEIR PHARMACEUTICAL COMPOSITIONS” (Jinan University, priority 2019, published 2022)
